# Data from ChEMBL document CHEMBL1201862, “PubChem BioAssay data set” (2004).
# The source made the active and inactive calls.
# Assays:
# [1] = target: Protein disulfide-isomerase (Homo sapiens, UniProt P07237); test: PDI inhibitors, insulin aggregation turbidity, dose response, biochemical, absorbance, cherry-picked samples (AID 602350); type: functional
# [2] = target: T1, Glycogen synthase kinase-3 beta (Homo sapiens, UniProt P49841); test: GSK3beta kinase inhibitors, dose response, biochemical, microfluidics, dry powder samples, set 2 (AID 623989); type: functional
# T1 sequence (P49841 whole entry): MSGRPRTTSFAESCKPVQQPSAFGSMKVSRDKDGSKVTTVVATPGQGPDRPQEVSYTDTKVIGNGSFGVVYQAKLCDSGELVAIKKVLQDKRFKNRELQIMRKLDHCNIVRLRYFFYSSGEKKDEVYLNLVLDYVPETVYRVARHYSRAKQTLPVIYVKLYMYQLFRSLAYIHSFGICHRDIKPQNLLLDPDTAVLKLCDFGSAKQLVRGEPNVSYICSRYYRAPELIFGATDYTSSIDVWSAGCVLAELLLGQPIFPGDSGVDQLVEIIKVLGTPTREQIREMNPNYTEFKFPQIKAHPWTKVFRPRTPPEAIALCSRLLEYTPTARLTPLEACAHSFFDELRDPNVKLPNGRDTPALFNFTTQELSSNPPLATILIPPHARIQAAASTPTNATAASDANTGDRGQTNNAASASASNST
# [3] = target: T2, Cyclin-dependent kinase 5/CDK5 activator 1 (Homo sapiens, UniProt Q00535); test: CDK5-p25 kinase inhibition, dose response, selectivity assay for GSK3beta inhibitor project, biochemical, microfluidic mobility shift, dry powder, set 2 (AID 623979); type: functional
# T2 sequence (Q00535 whole entry): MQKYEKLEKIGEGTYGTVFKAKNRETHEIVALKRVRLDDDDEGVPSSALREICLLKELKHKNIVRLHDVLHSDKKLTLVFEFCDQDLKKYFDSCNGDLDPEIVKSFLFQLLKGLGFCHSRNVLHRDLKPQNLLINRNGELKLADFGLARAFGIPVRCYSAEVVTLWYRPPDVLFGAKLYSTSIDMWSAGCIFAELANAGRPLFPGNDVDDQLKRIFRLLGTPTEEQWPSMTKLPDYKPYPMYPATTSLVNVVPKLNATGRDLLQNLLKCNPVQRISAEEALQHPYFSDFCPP
# T2 sequence (Q15078 whole entry, further chain): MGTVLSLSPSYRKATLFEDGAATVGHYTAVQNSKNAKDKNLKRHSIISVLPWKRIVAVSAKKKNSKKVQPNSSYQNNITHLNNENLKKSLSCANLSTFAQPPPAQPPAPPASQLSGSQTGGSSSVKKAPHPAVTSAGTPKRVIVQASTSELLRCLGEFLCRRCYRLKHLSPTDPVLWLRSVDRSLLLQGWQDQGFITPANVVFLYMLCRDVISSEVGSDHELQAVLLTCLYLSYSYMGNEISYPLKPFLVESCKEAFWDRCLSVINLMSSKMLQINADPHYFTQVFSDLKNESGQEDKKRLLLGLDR
# Aurora kinase A = Aurora kinase A (Homo sapiens, UniProt O14965); type: functional;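 further: value from the Navigating the Kinome kinase panel profiling, panel entry STK6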
# Sequence of Aurora kinase A (O14965 whole entry): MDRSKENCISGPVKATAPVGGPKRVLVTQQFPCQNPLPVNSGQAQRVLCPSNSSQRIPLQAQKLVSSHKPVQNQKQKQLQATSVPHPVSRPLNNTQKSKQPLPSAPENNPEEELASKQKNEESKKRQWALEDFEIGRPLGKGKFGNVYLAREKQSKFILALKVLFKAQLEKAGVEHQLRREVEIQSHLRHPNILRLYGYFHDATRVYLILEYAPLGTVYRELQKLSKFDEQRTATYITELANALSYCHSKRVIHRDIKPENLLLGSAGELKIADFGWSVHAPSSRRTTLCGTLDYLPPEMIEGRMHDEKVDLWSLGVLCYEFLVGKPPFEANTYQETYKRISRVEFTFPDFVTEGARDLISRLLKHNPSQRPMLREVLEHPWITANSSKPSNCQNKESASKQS
# Aurora kinase B = Aurora kinase B (Homo sapiens, UniProt Q96GD4); type: functional
# Sequence of Aurora kinase B (Q96GD4 whole entry): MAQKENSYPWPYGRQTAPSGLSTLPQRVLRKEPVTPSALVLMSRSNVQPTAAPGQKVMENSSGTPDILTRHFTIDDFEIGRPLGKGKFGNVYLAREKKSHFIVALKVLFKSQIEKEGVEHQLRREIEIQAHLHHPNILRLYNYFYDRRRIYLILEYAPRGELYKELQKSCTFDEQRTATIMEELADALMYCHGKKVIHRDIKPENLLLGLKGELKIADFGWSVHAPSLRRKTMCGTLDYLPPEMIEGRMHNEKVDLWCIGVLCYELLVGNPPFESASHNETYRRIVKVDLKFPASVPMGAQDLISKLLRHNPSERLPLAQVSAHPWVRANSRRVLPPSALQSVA
# [4] = target: Vascular endothelial growth factor receptor 2 (Homo sapiens, UniProt P35968); type: functional
# [5] = Vero cell cytotoxicity, dose response, cytotoxicity control for M. tuberculosis growth inhibitor project, Vero cells, purified and synthesized compounds, set 4 (AID 504854); type: functional; conditions: Mycobacterium tuberculosis
# [6] = THP-1 cell cytotoxicity, cytotoxicity control, set 4 (AID 504911); type: functional; conditions: Mycobacterium tuberculosis
# [7] = target: Dual specificity protein kinase CLK2 (Homo sapiens, UniProt P49760); type: functional
# Sequence of Dual specificity protein kinase CLK2 (P49760 whole entry): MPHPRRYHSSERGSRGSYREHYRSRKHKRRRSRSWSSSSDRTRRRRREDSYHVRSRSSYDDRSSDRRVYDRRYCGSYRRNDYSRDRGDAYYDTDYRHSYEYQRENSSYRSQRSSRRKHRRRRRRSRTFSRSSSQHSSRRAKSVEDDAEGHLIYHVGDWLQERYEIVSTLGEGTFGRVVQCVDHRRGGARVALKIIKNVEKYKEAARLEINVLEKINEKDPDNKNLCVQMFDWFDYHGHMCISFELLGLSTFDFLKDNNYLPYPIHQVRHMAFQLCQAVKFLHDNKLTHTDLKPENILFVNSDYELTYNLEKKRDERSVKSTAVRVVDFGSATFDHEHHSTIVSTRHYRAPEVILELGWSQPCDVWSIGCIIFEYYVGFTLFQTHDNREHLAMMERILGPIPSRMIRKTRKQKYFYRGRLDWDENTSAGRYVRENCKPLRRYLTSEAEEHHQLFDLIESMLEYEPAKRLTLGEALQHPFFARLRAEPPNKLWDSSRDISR
# [8] = target: Serine/threonine-protein kinase pim-1 (Homo sapiens, UniProt P11309); type: functional
# [9] = target: Dual specificity protein kinase CLK4 (Homo sapiens, UniProt Q9HAZ1); type: functional
# [10] = target: Cyclin-dependent kinase 19 (Homo sapiens, UniProt Q9BWU1); test: Navigating the Kinome. Panel member name: CDC2L6; type: functional
# Sequence of Cyclin-dependent kinase 19 (Q9BWU1 whole entry): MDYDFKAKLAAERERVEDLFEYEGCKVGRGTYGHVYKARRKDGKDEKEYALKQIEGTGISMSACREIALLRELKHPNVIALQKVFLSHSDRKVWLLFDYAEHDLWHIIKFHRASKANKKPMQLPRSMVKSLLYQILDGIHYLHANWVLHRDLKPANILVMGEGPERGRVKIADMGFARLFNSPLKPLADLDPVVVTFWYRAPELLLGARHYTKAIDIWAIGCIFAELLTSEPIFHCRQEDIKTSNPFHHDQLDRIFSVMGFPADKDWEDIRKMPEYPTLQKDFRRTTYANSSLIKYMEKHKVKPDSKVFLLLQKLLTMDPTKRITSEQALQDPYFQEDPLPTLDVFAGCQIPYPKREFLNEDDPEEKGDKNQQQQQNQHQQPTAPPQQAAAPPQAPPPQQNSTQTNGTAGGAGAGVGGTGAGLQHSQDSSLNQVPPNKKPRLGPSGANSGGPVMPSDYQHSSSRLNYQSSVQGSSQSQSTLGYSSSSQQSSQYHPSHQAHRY
# [11] = target: ALK tyrosine kinase receptor (Homo sapiens, UniProt Q9UM73); type: functional;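 further: ALK tested as one member of a kinase panel screen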
# [12] = C. albicans growth with fluconazole, confirmation, fluorescence, retest (AID 2467); type: functional, cell-based
# Insulin-degrading enzyme [13] = target: T3, Insulin-degrading enzyme (Homo sapiens, UniProt P14735); test: activators of endogenous IDE in HEK cells, dose response, cell-based, fluorescence polarization (AID 588439); type: functional
# T3 sequence (P14735 whole entry): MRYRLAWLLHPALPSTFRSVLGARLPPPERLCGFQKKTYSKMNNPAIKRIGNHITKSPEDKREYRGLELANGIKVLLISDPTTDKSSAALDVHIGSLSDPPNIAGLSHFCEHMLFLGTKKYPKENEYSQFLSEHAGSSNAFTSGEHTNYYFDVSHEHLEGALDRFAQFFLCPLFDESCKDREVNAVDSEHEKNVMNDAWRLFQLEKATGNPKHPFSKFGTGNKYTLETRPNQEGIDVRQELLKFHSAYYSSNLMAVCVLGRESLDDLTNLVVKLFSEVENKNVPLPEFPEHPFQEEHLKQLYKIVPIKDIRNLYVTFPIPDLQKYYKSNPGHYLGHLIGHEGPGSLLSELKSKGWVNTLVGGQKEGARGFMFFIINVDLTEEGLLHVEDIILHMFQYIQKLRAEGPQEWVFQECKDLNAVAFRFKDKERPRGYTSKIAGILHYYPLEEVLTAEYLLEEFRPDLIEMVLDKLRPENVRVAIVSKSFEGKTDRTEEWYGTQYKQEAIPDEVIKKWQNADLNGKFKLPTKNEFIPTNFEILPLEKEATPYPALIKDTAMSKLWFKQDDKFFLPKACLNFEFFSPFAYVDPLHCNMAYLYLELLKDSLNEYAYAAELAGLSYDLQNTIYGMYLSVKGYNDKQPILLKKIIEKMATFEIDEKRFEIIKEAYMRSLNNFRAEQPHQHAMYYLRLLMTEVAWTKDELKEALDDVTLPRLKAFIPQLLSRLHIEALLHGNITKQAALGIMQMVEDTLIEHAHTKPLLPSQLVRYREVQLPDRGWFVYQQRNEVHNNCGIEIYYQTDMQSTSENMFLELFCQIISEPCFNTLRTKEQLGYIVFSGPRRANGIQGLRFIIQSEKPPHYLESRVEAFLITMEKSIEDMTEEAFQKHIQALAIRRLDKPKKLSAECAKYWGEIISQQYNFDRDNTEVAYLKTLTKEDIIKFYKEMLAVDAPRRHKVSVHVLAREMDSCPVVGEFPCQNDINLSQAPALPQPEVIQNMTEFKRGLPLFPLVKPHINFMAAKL
# HEK293 [14] = test: HEK cell cytotoxicity by LDH release, dose response, cytotoxicity control for IDE activator project, fluorescence, HEK cells (AID 588440); type: functional, cell-based; conditions: Homo sapiens;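 further: cytotoxicity by LDH release measuring loss of membrane integrity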
# [15] = NIH-3T3 fibroblast cytotoxicity, dose response, cytotoxicity control, cell-based, fluorescence, Alamar Blue, secondary assay (AID 2327); type: functional;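 further: NIH-3T3 mouse fibroblasts cultured with fluconazole at 8 µg/mL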
# [16] = target: T4, Zinc finger protein mex-5 (Caenorhabditis elegans, UniProt Q9XUB2); test: MEX-5/TCR-2 RNA interaction inhibitors, dose response, biochemical, C. elegans, fluorescence polarization (AID 1960)
# T4 sequence (Q9XUB2 whole entry): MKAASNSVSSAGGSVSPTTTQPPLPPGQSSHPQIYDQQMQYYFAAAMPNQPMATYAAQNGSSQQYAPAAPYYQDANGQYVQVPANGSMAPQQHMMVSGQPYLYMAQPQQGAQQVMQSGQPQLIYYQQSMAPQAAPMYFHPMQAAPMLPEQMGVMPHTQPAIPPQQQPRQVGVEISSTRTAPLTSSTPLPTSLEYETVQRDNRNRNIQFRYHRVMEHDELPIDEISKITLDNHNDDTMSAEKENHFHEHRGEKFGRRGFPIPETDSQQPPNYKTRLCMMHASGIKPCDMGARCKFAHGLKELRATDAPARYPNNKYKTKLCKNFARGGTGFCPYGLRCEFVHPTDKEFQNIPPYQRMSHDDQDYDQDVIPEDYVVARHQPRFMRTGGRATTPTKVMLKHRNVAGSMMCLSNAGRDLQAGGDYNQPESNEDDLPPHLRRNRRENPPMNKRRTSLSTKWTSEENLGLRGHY
# [17] = target: T5, RNA-binding protein pos-1 (Caenorhabditis elegans, UniProt G5EF15); test: inhibitors of POS-1/mex-3 RNA binding, dose response, biochemical, fluorescence polarization (AID 1964);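 further: purified POS-1 fused to maltose binding protein made in E. coli; potency of compounds blocking POS-1 binding to fluorescent RNA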
# T5 sequence (G5EF15 whole entry): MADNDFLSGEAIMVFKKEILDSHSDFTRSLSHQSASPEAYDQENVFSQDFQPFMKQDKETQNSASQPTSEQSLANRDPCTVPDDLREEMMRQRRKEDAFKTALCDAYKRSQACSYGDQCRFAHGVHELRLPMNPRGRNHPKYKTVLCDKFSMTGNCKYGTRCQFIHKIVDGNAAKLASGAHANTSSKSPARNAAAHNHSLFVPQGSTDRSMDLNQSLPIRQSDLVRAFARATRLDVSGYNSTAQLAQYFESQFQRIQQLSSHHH
# Insulin-degrading enzyme [18] = target: T3, Insulin-degrading enzyme; test: activators of recombinant IDE enzyme, dose response, counter-screen for IDE activator project, biochemical, fluorescence polarization (AID 588681)
# HEK293 [19] = test: optical interference in Abeta FP readout, dose response, artefact control for IDE activator project, biochemical, fluorescence polarization (AID 588442); type: functional, cell-based; conditions: Homo sapiens
# [20] = target: Melanin-concentrating hormone receptor 1 (Homo sapiens, UniProt Q99705); test: Late-stage fluorescence-based counterscreen for antagonists of the G-protein coupled receptor 7 (GPR7): cell-based dose response assay to identify antagonists of the melanin-concentrating hormone receptor 1 (MCHR1) Set 5.; type: functional
# [21] = target: T6, Glycogen synthase kinase-3 alpha (Homo sapiens, UniProt P49840); type: functional;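 on Ki: GSK3A result taken from a broad kinome-wide kinase panel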
# T6 sequence (P49840 whole entry): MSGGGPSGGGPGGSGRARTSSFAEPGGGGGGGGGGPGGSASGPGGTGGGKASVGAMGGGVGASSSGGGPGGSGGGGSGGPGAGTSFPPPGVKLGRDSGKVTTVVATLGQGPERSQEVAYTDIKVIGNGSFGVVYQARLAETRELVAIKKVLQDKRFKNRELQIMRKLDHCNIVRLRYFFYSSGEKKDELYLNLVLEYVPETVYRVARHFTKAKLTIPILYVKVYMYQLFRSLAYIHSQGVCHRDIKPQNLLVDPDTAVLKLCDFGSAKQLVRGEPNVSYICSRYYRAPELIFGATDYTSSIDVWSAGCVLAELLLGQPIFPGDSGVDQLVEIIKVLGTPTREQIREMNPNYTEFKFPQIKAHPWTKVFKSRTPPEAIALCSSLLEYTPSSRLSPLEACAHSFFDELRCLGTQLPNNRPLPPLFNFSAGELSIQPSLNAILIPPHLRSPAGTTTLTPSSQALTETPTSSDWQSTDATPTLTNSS
# [22] = target: Receptor-type tyrosine-protein kinase FLT3 (Homo sapiens, UniProt P36888); type: functional;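 further: FLT3 was tested as one member of a kinome-wide kinase panel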
# Activin receptor type-1 = Activin receptor type-1 (Homo sapiens, UniProt Q04771); test: Navigating the Kinome. Panel member name: ACVR1; type: functional
# [23] = target: T1, Glycogen synthase kinase-3 beta; type: functional
# [24] = target: T1, Glycogen synthase kinase-3 beta; test: Inhibition of Human GSK-3 beta Activity Measured in Biochemical System Using Microfluidics - 2063-05_Inhibitor_Dose_DryPowder_Activity_Set2. [Related pubchem assays (depositor defined):AID2709]
# [25] = target: T6, Glycogen synthase kinase-3 alpha; test: Inhibition of Human GSK-3 alpha Activity Measured in Biochemical System Using Microfluidics - 2063-06_Inhibitor_Dose_DryPowder_Activity_Set2. [Related pubchem assays (depositor defined):AID2709]
# [26] = target: T2, Cyclin-dependent kinase 5/CDK5 activator 1; test: CDK5-p25 kinase inhibitors, specificity check, dose response, selectivity assay for GSK-3 alpha inhibitor project, biochemical, microfluidic mobility shift, dry powder (AID 588430)
# [27] = target: T7, High affinity choline transporter 1 (Homo sapiens, UniProt Q9GZV3); test: CHT activators, dose response, cell-based, 10-point CRC, membrane potential dye (AID 602376); type: functional
# T7 sequence (Q9GZV3 whole entry): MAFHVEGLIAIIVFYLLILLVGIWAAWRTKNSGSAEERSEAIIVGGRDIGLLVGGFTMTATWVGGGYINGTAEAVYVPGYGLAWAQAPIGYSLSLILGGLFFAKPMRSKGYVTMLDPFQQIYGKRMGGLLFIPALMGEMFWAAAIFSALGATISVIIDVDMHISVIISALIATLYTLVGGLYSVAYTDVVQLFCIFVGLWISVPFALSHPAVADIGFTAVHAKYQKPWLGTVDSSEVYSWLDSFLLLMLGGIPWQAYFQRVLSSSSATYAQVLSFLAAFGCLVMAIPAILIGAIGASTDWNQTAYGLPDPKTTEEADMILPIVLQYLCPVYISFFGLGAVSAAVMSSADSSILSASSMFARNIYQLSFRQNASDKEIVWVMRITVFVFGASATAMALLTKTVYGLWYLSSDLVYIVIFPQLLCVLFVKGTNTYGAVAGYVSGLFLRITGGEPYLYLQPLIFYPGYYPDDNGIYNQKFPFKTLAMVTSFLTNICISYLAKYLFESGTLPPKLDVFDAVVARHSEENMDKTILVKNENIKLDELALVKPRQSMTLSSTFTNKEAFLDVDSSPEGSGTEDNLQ
# [28] = microbe, parasite or virus in culture; type: functional; conditions: Mycobacterium tuberculosis
# [29] = target: 72 kDa type IV collagenase (Homo sapiens, UniProt P08253); test: Dose Response validation of uHTS RPN11 inhibitor hits using a MMP-2 Fluorescence assay.; type: functional
# Sequence of 72 kDa type IV collagenase (P08253 whole entry): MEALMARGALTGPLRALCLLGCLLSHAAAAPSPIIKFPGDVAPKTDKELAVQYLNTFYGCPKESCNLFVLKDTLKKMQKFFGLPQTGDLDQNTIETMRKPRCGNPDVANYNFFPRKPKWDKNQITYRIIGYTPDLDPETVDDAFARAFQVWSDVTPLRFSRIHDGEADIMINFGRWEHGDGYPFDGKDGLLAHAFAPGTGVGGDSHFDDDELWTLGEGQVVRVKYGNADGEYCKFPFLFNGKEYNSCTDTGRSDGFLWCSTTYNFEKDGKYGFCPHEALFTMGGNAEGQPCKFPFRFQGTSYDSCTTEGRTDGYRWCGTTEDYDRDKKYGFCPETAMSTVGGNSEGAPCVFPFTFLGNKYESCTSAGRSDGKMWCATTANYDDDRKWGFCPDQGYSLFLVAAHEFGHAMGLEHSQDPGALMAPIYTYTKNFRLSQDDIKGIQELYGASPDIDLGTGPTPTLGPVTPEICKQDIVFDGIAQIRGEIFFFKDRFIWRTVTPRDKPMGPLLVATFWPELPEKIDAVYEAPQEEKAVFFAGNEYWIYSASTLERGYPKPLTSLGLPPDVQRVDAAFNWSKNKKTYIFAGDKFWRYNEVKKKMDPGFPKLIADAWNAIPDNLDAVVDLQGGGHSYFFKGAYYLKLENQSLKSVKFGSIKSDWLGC
# Vero = test: cells; type: functional; conditions: Chlorocebus sabaeus
# Prothrombin = Prothrombin (Bos taurus, UniProt P00735); test: thrombin inhibition, dose response, biochemical, fluorescence polarization, uHTS hits (AID 602369); type: functional
# [30] = target: 26S proteasome non-ATPase regulatory subunit 14 (Homo sapiens, UniProt O00487); test: inhibition of proteasome subunit RPN11 – biochemical, fluorescence polarization, uHTS hits, confirmation (AID 602368); type: functional
# Sequence of 26S proteasome non-ATPase regulatory subunit 14 (O00487 whole entry): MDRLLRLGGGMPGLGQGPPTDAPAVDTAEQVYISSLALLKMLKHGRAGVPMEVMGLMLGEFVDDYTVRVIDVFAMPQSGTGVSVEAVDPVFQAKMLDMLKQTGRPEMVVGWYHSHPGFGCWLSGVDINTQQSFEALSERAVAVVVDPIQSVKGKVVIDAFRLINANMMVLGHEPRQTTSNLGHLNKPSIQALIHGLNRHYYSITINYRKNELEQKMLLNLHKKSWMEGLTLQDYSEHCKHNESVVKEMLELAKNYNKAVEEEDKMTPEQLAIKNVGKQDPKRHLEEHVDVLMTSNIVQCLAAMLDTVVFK
# Sequence of Protein disulfide-isomerase (P07237 whole entry): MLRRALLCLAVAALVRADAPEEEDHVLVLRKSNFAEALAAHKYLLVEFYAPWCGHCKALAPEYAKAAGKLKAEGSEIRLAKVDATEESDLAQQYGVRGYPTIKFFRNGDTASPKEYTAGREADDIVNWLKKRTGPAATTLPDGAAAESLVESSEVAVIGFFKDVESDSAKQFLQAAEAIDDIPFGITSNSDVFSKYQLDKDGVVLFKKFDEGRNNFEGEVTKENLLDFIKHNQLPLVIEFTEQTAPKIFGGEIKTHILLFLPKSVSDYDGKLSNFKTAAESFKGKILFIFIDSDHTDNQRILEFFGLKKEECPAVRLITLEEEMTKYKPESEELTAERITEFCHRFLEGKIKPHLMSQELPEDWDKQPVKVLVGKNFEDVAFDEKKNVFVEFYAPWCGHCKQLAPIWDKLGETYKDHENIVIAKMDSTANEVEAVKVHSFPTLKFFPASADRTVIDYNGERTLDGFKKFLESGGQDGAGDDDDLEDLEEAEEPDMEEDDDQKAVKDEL
structure (smiles),measurement,setting,value
CC[C@]12c3[nH]c4cc(-c5ccco5)ccc4c3CCN1C(=O)[C@@H](CC(=O)NCc1ccc(OC)c(OC)c1)C[C@@H]2C(=O)N1CCN(C(=O)c2ccco2)CC1,AC50,[1],4.25 µM (active)
O=C(Cc1cccc2ccccc12)Nc1cn(C2CCC2)cn1,AC50,[2],8.41 µM (active)
same,AC50,[3],0.137 µM (active)
O=C1NC(=S)NC(=O)C1=Cc1ccc(-c2ccc(C(=O)O)c(O)c2)o1,Ki,Aurora kinase A,0.126 µM (active)
same,Ki,Aurora kinase B,0.0398 µM (active)
same,Ki,[4],> 5.01 µM (inactive)
CC(C)NC(=O)CSc1nc2ccccc2c(=O)[nH]1,CC50,[5],> 100 µM (active)
same,CC50,[6],> 100 µM (active)
COCCn1c(C)c(C)sc1=NC(=O)c1cc(SC)ccc1Cl,Ki,[7],6.31 µM (active)
same,Ki,[8],6.31 µM (active)
same,Ki,[9],5.01 µM (active)
Cn1cc(Nc2ncc(Br)c(Nc3cccc(C(N)=O)c3)n2)cn1,Ki,[10],6.31 µM (active)
same,Ki,[11],3.16 µM (active)
O=C1c2cccc3c(O)ccc(c23)C(=O)N1Cc1ccccc1,EC50,[12],0.082 µM (active)
same,EC50,Insulin-degrading enzyme [13],> 54.7 µM (inactive)
same,IC50,HEK293 [14],> 89.2 µM (inactive)
same,EC50,[15],85.7 µM (active)
same,EC50,[16],0.183 µM (inconclusive)
same,EC50,[17],2.62 µM (active)
same,EC50,Insulin-degrading enzyme [18],> 54.7 µM (inactive)
same,EC50,HEK293 [19],> 54.7 µM (inactive)
COc1ccc(Oc2c(Cl)cnn(C3=Nc4cc(Cl)ccc4Oc4ncccc43)c2=O)cc1,IC50,[20],8.51 µM (active)
CCc1cnn2c(NCc3ccc[n+]([O-])c3)cc(N3CCCCC3CCO)nc12 (stereo not given),Ki,[21],1.58 µM (active)
same,Ki,[22],> 3.16 µM (inactive)
same,Ki,Activin receptor type-1,> 3.98 µM (inactive)
same,Ki,[23],1.26 µM (active)
O=C1c2ccccc2-c2onc3ccc(NCCCN4CCNC4)c1c23,AC50,[24],0.161 µM (active)
same,AC50,[25],0.52 µM (active)
same,AC50,[26],76.2 µM (active)
COc1cc2c(cc1OC)C(c1cccs1)N(C(S)=NC(C)C)CC2 (stereo not given),EC50,[27],17.5 µM (active)
COc1cc(/C=C/C(O)=C2\C(=O)NC(=O)N(CCc3ccccc3)C2=O)ccc1O,CC50,[28],15.9 µM (active)
same,IC50,[29],> 100 µM (inactive)
same,CC50,Vero,17.7 µM (active)
same,IC50,Prothrombin,40.6 µM (active)
same,IC50,[30],29.2 µM (active)
